Laboratory results reported in patent publication US20150152395A1, “CHIMERIC LUCIFERASES” (Connecticut College, priority 2012, published 2015).

Columns and labels:
Assay in all cases: Steady-state kinetic constants, bioluminescence activity
[1] = biological target: T1, Photinus pyralis luciferase PpyWT variant Ppy5, Ile457Val/Ala482Gly/His489Lys/Ala503Asn/Lys543Gln, SEQ ID NO: 10 (Photinus pyralis, UniProt P08659, A482G/A503N/H489K/I457V/K543Q); format: biochemical
T1 construct: pGEX-6P-2 GST fusion (tag cleaved), E. coli BL21
Experimental: (§1) Reactions were initiated by injection of solutions of the substrate being maintained at saturating concentration. Kinetic constants were determined using a nonlinear least squares method of the Enzyme Kinetics Pro software (SynTex), which fits data from the Michalis-Menten equation to a rectangular hyperbola. The corresponding kcat values were obtained by dividing the Vmax values by the amount (μmol) of each luciferase in the assay mixtures.

[2] = biological target: T2, Photinus pyralis luciferase variant Ppy RE13, Ppy RE9 (SEQ ID NO: 20) with Ile457Val/Arg465Phe/Ala482Gly/His489Lys/Ala503Asn/Lys543Gln, SEQ ID NO: 16 (Photinus pyralis, UniProt P08659, A215L/A482G/A503N/E354I/F295L/H489K/I232A/I351V/I457V/K543Q/R330G/S284T/T214A); format: biochemical
T2 construct: N-terminal GPLGS; pGEX-6P-2 GST fusion (tag cleaved), E. coli BL21
Experimental: as §1

[3] = biological target: T3, Photinus pyralis luciferase variant Ppy RE-TS, SEQ ID NO: 24 (Photinus pyralis, UniProt P08659, A215L/E354K/F295L/I232A/S284T/T214A); format: biochemical
T3 construct: N-terminal GPLGS; pGEX-6P-2 GST fusion (tag cleaved), E. coli BL21
Experimental: as §1

[4] = biological target: T4, Native Ppy, native firefly luciferase from Photinus pyralis (Photinus pyralis, UniProt P08659); format: biochemical
T4 construct: wild type, no tag
Experimental: as §1

[5] = biological target: LitWT, recombinant Luciola italica luciferase containing Lys547Gly/Met548Gly, SEQ ID NO: 6, with N-terminal peptide GPLGS (Luciola italica, UniProt Q1AG35, K547G/M548G); details: kcat divided by Mg-ATP Km
Experimental: as §1

[6] = biological target: T5, Photinus pyralis luciferase PpyWT variant Ppy S284T (Ser284Thr) (Photinus pyralis, UniProt P08659, S284T); format: biochemical
T5 construct: pGEX-6P-2 GST fusion (tag cleaved), E. coli BL21
Experimental: as §1

[7] = biological target: Photinus pyralis luciferase, recombinant wild type (PpyWT), SEQ ID NO: 4, with N-terminal peptide GPLGS (Photinus pyralis, UniProt P08659); format: biochemical
Experimental: as §1

[8] = read-out: Km Mg-ATP, pH 7.8, LH2 saturating
[9] = pH 7.8, LH2 saturating, read-out: Km Mg-ATP

T5 sequence (P08659 whole entry S284T, the tested form may be a part): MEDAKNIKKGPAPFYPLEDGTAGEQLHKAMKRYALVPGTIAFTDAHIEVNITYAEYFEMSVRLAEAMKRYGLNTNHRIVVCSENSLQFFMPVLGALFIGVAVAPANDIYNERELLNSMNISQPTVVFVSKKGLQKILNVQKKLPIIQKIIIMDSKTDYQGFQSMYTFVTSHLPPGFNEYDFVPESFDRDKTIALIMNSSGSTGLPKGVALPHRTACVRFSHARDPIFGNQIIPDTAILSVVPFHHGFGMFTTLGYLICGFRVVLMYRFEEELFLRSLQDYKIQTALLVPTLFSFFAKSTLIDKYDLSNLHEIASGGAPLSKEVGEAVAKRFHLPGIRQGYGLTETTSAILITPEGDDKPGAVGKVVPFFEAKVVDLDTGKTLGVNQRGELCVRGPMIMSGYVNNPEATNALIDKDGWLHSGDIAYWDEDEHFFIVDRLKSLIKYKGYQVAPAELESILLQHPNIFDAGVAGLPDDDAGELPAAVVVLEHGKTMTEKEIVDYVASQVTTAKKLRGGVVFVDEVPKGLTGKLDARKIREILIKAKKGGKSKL
Photinus pyralis luciferase, recombinant wild type (PpyWT), SEQ ID NO: 4, with N-terminal peptide GPLGS, sequence (P08659 whole entry): as the sequence (P08659 whole entry S284T, the tested form may be a part) above, with T284S counted along it
T4 sequence (P08659 whole entry): as the sequence (P08659 whole entry S284T, the tested form may be a part) above, with T284S counted along it
T3 sequence (P08659 whole entry T214A/A215L/I232A/S284T/F295L/E354K, the tested form may be a part): as the sequence (P08659 whole entry S284T, the tested form may be a part) above, with T214A, A215L, I232A, F295L, E354K counted along it
T1 sequence (P08659 whole entry I457V/A482G/H489K/A503N/K543Q, the tested form may be a part): as the sequence (P08659 whole entry S284T, the tested form may be a part) above, with T284S, I457V, A482G, H489K, A503N, K543Q counted along it
T2 sequence (P08659 whole entry T214A/A215L/I232A/S284T/F295L/R330G/I351V/E354I/I457V/A482G/H489K/A503N/K543Q, the tested form may be a part): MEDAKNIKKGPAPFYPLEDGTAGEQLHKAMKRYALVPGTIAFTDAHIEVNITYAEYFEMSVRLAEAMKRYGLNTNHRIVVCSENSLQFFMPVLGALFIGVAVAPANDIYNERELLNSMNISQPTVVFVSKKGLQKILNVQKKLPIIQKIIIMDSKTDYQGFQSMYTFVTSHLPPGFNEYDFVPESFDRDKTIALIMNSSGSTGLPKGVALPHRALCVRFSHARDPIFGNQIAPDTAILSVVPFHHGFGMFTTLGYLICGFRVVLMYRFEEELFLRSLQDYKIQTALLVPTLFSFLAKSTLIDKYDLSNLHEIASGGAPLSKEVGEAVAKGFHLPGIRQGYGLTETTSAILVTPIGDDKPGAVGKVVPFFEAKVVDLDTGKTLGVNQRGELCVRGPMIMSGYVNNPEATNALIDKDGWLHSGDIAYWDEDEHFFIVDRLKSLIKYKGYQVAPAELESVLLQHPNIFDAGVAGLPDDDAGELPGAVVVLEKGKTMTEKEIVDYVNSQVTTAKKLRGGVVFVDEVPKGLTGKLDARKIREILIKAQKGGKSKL
LitWT, recombinant Luciola italica luciferase containing Lys547Gly/Met548Gly, SEQ ID NO: 6, with N-terminal peptide GPLGS, sequence (Q1AG35 1-548 K547G/M548G): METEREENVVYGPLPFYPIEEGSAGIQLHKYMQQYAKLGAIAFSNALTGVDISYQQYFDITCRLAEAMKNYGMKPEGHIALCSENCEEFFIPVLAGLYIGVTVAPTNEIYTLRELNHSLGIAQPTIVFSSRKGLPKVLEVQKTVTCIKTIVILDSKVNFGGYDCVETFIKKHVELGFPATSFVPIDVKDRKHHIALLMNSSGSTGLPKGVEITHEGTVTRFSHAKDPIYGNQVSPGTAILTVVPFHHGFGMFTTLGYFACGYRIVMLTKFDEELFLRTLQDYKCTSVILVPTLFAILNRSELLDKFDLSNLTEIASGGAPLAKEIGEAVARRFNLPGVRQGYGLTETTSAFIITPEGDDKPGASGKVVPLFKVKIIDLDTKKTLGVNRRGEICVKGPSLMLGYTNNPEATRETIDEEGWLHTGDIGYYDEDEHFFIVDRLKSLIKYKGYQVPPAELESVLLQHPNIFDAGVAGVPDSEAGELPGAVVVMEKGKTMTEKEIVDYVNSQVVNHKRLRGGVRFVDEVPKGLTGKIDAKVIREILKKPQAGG

Nc1ncnc2c1ncn2[C@@H]1O[C@H](COP(=O)(O)OP(=O)(O)OP(=O)(O)O)[C@@H](O)[C@H]1O [Mg-ATP]
kcat/Km ([1]; kcat divided by Mg-ATP Km): 4310 ± 120 M⁻¹ s⁻¹
Km [1, 8]: 72 ± 7 µM
kcat/Km ([2]; kcat divided by Mg-ATP Km): 380 ± 100 M⁻¹ s⁻¹
Km [2, 8]: 289 ± 20 µM
kcat/Km ([3]; kcat divided by Mg-ATP Km): 820 ± 90 M⁻¹ s⁻¹
Km [3, 8]: 68 ± 5 µM
kcat/Km ([4]; kcat divided by Mg-ATP Km): 1890 ± 130 M⁻¹ s⁻¹
Km [4, 9]: 90 ± 10 µM
kcat/Km [5]: 780 ± 110 M⁻¹ s⁻¹
kcat/Km ([6]; kcat divided by Mg-ATP Km): 630 ± 140 M⁻¹ s⁻¹
Km [6, 8]: 79 ± 9 µM
kcat/Km ([7]; kcat divided by Mg-ATP Km): 2090 ± 100 M⁻¹ s⁻¹
Km [7, 9]: 86 ± 7 µM
